Measurements reported in US4742053A, “3-Isoquinoliniomethyl cephalosporin derivatives” (Banyu Pharmaceutical Co., Ltd., priority 1984, dated 1988).
Converted amounts (≈) assume the structure as drawn.

What was measured:
Format in all cases: cell-based
E. coli NIHJ = assay: bioautography (TLC); settings: TLC Merck silica gel F254, E. coli NIHJ
Procedure: 2.5 mg of the compound obtained in Example 4 (C) was suspended in 0.5 ml of methanol, and 35 μl of concentrated aqueous ammonia was added thereto. The mixture was left to stand at room temperature for 1 hour. […] The fraction of this peak was separated and freeze-dried to obtain 1 mg of the above identified compound.

E. coli CSH = assay: MIC by agar plate dilution method; settings: Escherichia coli, 10^6 CFU/ml, read-out: Minimum Inhibitory Concentration
Outline: (§1)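 Read-out is the minimum inhibitory concentration in μg/ml, found by the agar plate dilution method using a 10^6 CFU/ml inoculum on Sensitivity Disk Agar.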

K. pneumoniae No. 42 = assay: MIC by agar plate dilution method; settings: Klebsiella pneumoniae, NO.42, read-out: Minimum Inhibitory Concentration
Outline: as §1

C. freundii No. 7 = assay: MIC by agar plate dilution method; settings: Citrobacter freundii; C. freundii No. 7; 10^6 CFU/ml; read-out: Minimum Inhibitory Concentration
Outline: as §1

E. coli W3630/Rms212 = assay: MIC by agar plate dilution method; settings: Escherichia coli, W3630/RMS212, read-out: Minimum Inhibitory Concentration, E. coli W3630/Rms212; 10^6 CFU/ml
Outline: (§2)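 Compounds are diluted into Sensitivity Disk Agar plates, which are then inoculated at 10^6 CFU/ml. The lowest concentration inhibiting growth is taken as the MIC (μg/ml).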

P. vulgaris OB1043 = assay: MIC by agar plate dilution method; settings: Proteus vulgaris, OB1043, P. vulgaris OB1043; 10^6 CFU/ml; read-out: Minimum Inhibitory Concentration
Outline: as §1

E. coli ML1410/Rte16 = assay: MIC by agar plate dilution method; settings: Escherichia coli, ML1410/RTE16, read-out: Minimum Inhibitory Concentration, E. coli ML1410/Rte16; 10^6 CFU/ml
Outline: as §2

S. aureus NIHJJC-1 = assay: MIC by agar plate dilution method; settings: Staphylococcus aureus, NIHJJC1, read-out: Minimum Inhibitory Concentration
Outline: as §1

S. aureus JS-1 = assay: MIC by agar plate dilution method; settings: Staphylococcus aureus, JS1; S. aureus JS-1; 10^6 CFU/ml; read-out: Minimum Inhibitory Concentration
Outline: as §1

E. cloaceae Nek 39 = assay: MIC by agar plate dilution method; settings: E. cloaceae Nek 39; 10^6 CFU/ml; read-out: Minimum Inhibitory Concentration
Outline: as §1

E. coli CSH2 = assay: MIC by agar plate dilution method; settings: Escherichia coli, 10^6 CFU/ml, read-out: Minimum Inhibitory Concentration
Outline: as §1

P. aeruginosa AK109 = assay: MIC by agar plate dilution method; settings: Pseudomonas aeruginosa, AK109, P. aeruginosa AK109; 10^6 CFU/ml; read-out: Minimum Inhibitory Concentration
Outline: as §1

P. aeruginosa AKR17 = assay: MIC by agar plate dilution method; settings: Pseudomonas aeruginosa, AKR17, P. aeruginosa AKR17; 10^6 CFU/ml; read-out: Minimum Inhibitory Concentration
Outline: as §1

A. calcoaceticus No. 14 = assay: MIC by agar plate dilution method; settings: Acinetobacter calcoaceticus, NO.14, A. calcoaceticus No. 14; 10^6 CFU/ml; read-out: Minimum Inhibitory Concentration
Outline: as §1

E. coli C/Rms149 = assay: MIC by agar plate dilution method; settings: Escherichia coli, read-out: Minimum Inhibitory Concentration, E. coli C/Rms149; 10^6 CFU/ml
Outline: as §2

P. vulgaris No. 33 = assay: MIC by agar plate dilution method; settings: Proteus vulgaris; P. vulgaris No. 33; 10^6 CFU/ml; read-out: Minimum Inhibitory Concentration
Outline: as §1

E. coli W3630/Rms213 = assay: MIC by agar plate dilution method; settings: Escherichia coli, W3630/RMS213, read-out: Minimum Inhibitory Concentration, E. coli W3630/Rms213; 10^6 CFU/ml
Outline: as §2

E. coli NIHJJC-2 = assay: MIC by agar plate dilution method; settings: Escherichia coli, NIHJJC2, E. coli NIHJJC-2; 10^6 CFU/ml; read-out: Minimum Inhibitory Concentration
Outline: as §1

S. marcescens No. 16-2 = assay: MIC by agar plate dilution method; settings: Serratia marcescens, NO.162; S. marcescens No. 16-2; 10^6 CFU/ml; read-out: Minimum Inhibitory Concentration
Outline: as §1

P. mirabilis JY10 = assay: MIC by agar plate dilution method; settings: Proteus mirabilis; P. mirabilis JY10; 10^6 CFU/ml; read-out: Minimum Inhibitory Concentration
Outline: as §1

bacteria = assay: antibacterial spectrum of the compound of Example 6; settings: compared with the compound of Example 3 (E)

CON=C(C(=O)NC1C(=O)N2C(C(=O)[O-])=C(C[N+]3(C)CCc4cc(O)c(O)cc4C3)CSC12)c1csc(N)n1 (stereo not drawn) [Ex. 3-E, 7-[(Z)-2-(2-aminothiazol-4-yl)-2-methoxyiminoacetamido]-3-(6,7-dihydroxy-2-methyl-1,2,3,4-tetrahydro-2-isoquinolinium)methyl-3-cephem-4-carboxylate]
antibacterial spot in bioautography (E. coli NIHJ): shows a spot exhibiting antibacterial activities at Rf=0.1 | MIC (E. coli CSH): 0.78 µg/mL (≈ 1.36 µM) | MIC (K. pneumoniae No. 42): 0.39 µg/mL (≈ 0.679 µM) | MIC (C. freundii No. 7): 3.12 µg/mL (≈ 5.43 µM) | MIC (E. coli W3630/Rms212): 0.05 µg/mL (≈ 0.087 µM) | MIC (P. vulgaris OB1043): 0.78 µg/mL (≈ 1.36 µM) | MIC (E. coli ML1410/Rte16): 0.1 µg/mL (≈ 0.174 µM) | MIC (S. aureus NIHJJC-1): 1.56 µg/mL (≈ 2.71 µM) | MIC (S. aureus JS-1): 6.25 µg/mL (≈ 10.9 µM) | MIC (E. cloaceae Nek 39): 0.1 µg/mL (≈ 0.174 µM) | MIC (E. coli CSH2): 0.1 µg/mL (≈ 0.174 µM) | MIC (P. aeruginosa AK109): 0.78 µg/mL (≈ 1.36 µM) | MIC (P. aeruginosa AKR17): 3.12 µg/mL (≈ 5.43 µM) | MIC (A. calcoaceticus No. 14): 0.39 µg/mL (≈ 0.679 µM) | MIC (E. coli C/Rms149): 0.1 µg/mL (≈ 0.174 µM) | MIC (P. vulgaris No. 33): 0.2 µg/mL (≈ 0.348 µM) | MIC (E. coli W3630/Rms213): 1.56 µg/mL (≈ 2.71 µM) | MIC (E. coli NIHJJC-2): 0.1 µg/mL (≈ 0.174 µM) | MIC (S. marcescens No. 16-2): 12.5 µg/mL (≈ 21.8 µM) | MIC (P. mirabilis JY10): 0.78 µg/mL (≈ 1.36 µM) | antibacterial spectrum (bacteria): exhibited the same antibacterial spectrum as the compound of Example 3 (E)
